{"source": "paper PMC5419589", "about": "(Bioorganic & medicinal chemistry, 2016)", "key": {"[1]": {"test_system": "T. brucei brucei strain BF427", "assay": "T. brucei growth inhibition assay", "format": "cell-based, Trypanosoma brucei brucei", "settings": "for activity on T. brucei cells (in words): T. brucei EC50 assay; for fold reduction of potency compared to compound 2: vs 2, T. brucei EC50; for fold enhancement of potency with respect to compound 1: vs 1, T. brucei EC50; for EC50: Trypanosoma brucei, 48 h, read-out: EC50, concentration required to inhibit growth by 50% of T. brucei brucei, strain BF427, 48H, AlamarBlue"}, "[2]": {"test_system": "T. brucei brucei (strain TREU667)", "assay": "Chronic", "format": "in vivo, mouse", "settings": "for relapse with parasites in the blood / suppression of parasitemia during treatment phase: TREU667, 50 mg/kg twice a day oral day 21 to 34; for number of mice free of parasitemia/number of mice in the group: same dosing"}, "[3]": {"settings": "day 35 post-infection, day 1 post-treatment"}, "[4]": {"settings": "day 36 post-infection, day 2 post-treatment"}, "[5]": {"settings": "day 37 post-infection, day 3 post-treatment"}, "[6]": {"settings": "day 39 post-infection, day 5 post-treatment"}, "[7]": {"settings": "day 38 post-infection, day 4 post-treatment"}, "[8]": {"settings": "day 40 post-infection, day 6 post-treatment"}}, "note": "Counter-ions that a name gives are not always drawn."}
{"smiles": "Cl.NCCN(C(=O)c1ccccc1C(F)(F)F)c1ccc(OCc2ccc(Cl)cc2)cc1", "note": "[Compound 66, N-(2-Aminoethyl)-N-{4-[(4-chlorophenyl)methoxy]phenyl}-2-(trifluoromethyl)benzamide hydrochloride]", "values": [{"measurement": "activity on T. brucei cells (in words)", "setting": "[1]", "value": "single digit nanomolar EC50 values"}]}
{"smiles": "CC(C)c1ccc(COc2ccc(N(CCN)C(=O)c3cccnc3Cl)cc2)cc1.Cl", "note": "[Compound 72, N-(2-Aminoethyl)-2-chloro-N-(4-{[4-(propan-2-yl)phenyl]methoxy}phenyl)pyridine-3-carboxamide hydrochloride]", "values": [{"measurement": "relapse with parasites in the blood", "setting": "[2]", "value": "all mice relapsed"}, {"measurement": "suppression of parasitemia during treatment phase", "setting": "[2]", "value": "complete suppression"}, {"measurement": "number of mice free of parasitemia/number of mice in the group", "setting": "[2]; [3]", "value": "5/5"}, {"measurement": "number of mice free of parasitemia/number of mice in the group", "setting": "[2]; [4]", "value": "5/5"}, {"measurement": "number of mice free of parasitemia/number of mice in the group", "setting": "[2]; [5]", "value": "4/5"}, {"measurement": "number of mice free of parasitemia/number of mice in the group", "setting": "[2]; [6]", "value": "2/5"}]}
{"smiles": "Cl.NCCN(C(=O)c1c(F)c(F)c(F)c(F)c1F)c1ccc(Cl)cc1", "note": "[Compound 41, N-(2-Aminoethyl)-N-(4-chlorophenyl)-2,3,4,5,6-pentafluorobenzamide hydrochloride]", "values": [{"measurement": "fold improvement in activity compared to 20", "setting": "[1]; vs 20", "value": 26, "unit": "fold"}]}
{"smiles": "Cl.NCCN(C(=O)c1ccc(Cl)cc1Cl)c1cccc(Cl)c1", "note": "[Compound 11, N-(2-Aminoethyl)-2,4-dichloro-N-(3-chlorophenyl)benzamide hydrochloride]", "values": [{"measurement": "fold reduction of potency compared to compound 2", "setting": "[1]", "value": 10, "unit": "fold"}]}
{"smiles": "Cl.NCCN(C(=O)c1ccc(Cl)cc1Cl)c1ccc(Oc2cccc(Cl)c2)cc1", "note": "[Compound 17, N-(2-Aminoethyl)-2,4-dichloro-N-[4-(3-chlorophenoxy)phenyl] benzamide hydrochloride]", "values": [{"measurement": "fold enhancement of potency with respect to compound 1", "setting": "[1]", "value": 4, "unit": "fold"}]}
{"smiles": "COc1ccc(N(CCN)C(=O)c2ccc(Cl)cc2Cl)cc1.Cl", "note": "[Compound 8, N-(2-Aminoethyl)-2,4-dichloro-N-(4-methoxyphenyl)benzamide hydrochloride]", "values": [{"measurement": "activity on T. brucei cells (in words)", "setting": "[1]", "value": "eliminated activity"}]}
{"smiles": "Cl.NCCN(C(=O)c1ccc(Cl)cc1Cl)c1ccc(Cl)cc1", "note": "[Compound 2, N-(2-Aminoethyl)-2,4-dichloro-N-(4-chlorophenyl)benzamide]", "values": [{"measurement": "fold enhancement of potency with respect to compound 1", "setting": "[1]", "value": 4, "unit": "fold"}]}
{"smiles": "O=C(c1ccc(Cl)cc1Cl)N(CCN1CCOCC1)c1ccc(Cl)cc1", "note": "[Compound 48, 2,4-Dichloro-N-(4-chlorophenyl)-N-[2-(morpholin-4-yl)ethyl] benzamide]", "values": [{"measurement": "activity on T. brucei cells (in words)", "setting": "[1]", "value": "inactive"}]}
{"smiles": "Cl.NCCN(C(=O)c1ccc(Cl)cc1Cl)c1ccc([N+](=O)[O-])cc1", "note": "[Compound 9, N-(2-Aminoethyl)-2,4-dichloro-N-(4-nitrophenyl)benzamide hydrochloride]", "values": [{"measurement": "activity on T. brucei cells (in words)", "setting": "[1]", "value": "eliminated activity"}]}
{"smiles": "CCN(C(=O)c1ccc(Cl)cc1Cl)c1ccc(F)cc1", "note": "[Compound 45, 2,4-Dichloro-N-ethyl-N-(4-fluorophenyl)benzamide]", "values": [{"measurement": "activity on T. brucei cells (in words)", "setting": "[1]", "value": "eliminated anti-T. brucei activity"}, {"measurement": "EC50", "setting": "[1]", "value": "> 10000", "unit": "nM"}]}
{"smiles": "Cl.NCCN(C(=O)c1ccc(Cl)cc1Cl)c1ccc(Br)cc1", "note": "[Compound 3, N-(2-Aminoethyl)-N-(4-bromophenyl)-2,4-dichlorobenzamide hydrochloride]", "values": [{"measurement": "fold enhancement of potency with respect to compound 1", "setting": "[1]", "value": 4, "unit": "fold"}]}
{"smiles": "N#CCN(C(=O)c1ccc(Cl)cc1Cl)c1ccc(Cl)cc1", "note": "[Compound 60, 2,4-Dichloro-N-(4-chlorophenyl)-N-(cyanomethyl)benzamide]", "values": [{"measurement": "activity on T. brucei cells (in words)", "setting": "[1]", "value": "inactive"}]}
{"smiles": "O=C(c1ccc(Cl)cc1Cl)N(CCO)c1ccc(Cl)cc1", "note": "[Compound 49, 2,4-Dichloro-N-(4-chlorophenyl)-N-(2-hydroxyethyl)benzamide]", "values": [{"measurement": "activity on T. brucei cells (in words)", "setting": "[1]", "value": "inactive"}]}
{"smiles": "NCCN(C(=O)c1ccccc1C(F)(F)F)c1ccc(Cl)cc1", "note": "[Compound 42, N-(2-aminoethyl)-N-(4-chlorophenyl)-2-(trifluoromethyl) benzamide hydrochloride]", "values": [{"measurement": "EC50", "setting": "[1]", "value": 180, "unit": "nM"}]}
{"smiles": "CC1(C)OB(O)c2cc(NC(=O)c3ccc(F)cc3C(F)(F)F)ccc21", "note": "[SCYX-7158, reference compound]", "values": [{"measurement": "cure in late-stage model (in words)", "setting": "[2]; 50 mg/kg PO twice per day", "value": "cured all mice"}]}
{"smiles": "Cl.NCCN(C(=O)c1ccc(Cl)cc1Cl)c1ccc(Oc2ccc(Cl)cc2)cc1", "note": "[Compound 16, N-(2-Aminoethyl)-2,4-dichloro-N-[4-(4-chlorophenoxy)phenyl] benzamide hydrochloride]", "values": [{"measurement": "fold enhancement of potency with respect to compound 1", "setting": "[1]", "value": 7, "unit": "fold"}]}
{"smiles": "Cl.NCCN(C(=O)c1cccnc1C(F)(F)F)c1ccc(OCc2ccc(Cl)cc2)cc1", "note": "[Compound 68, N-(2-Aminoethyl)-N-{4-[(4-chlorophenyl)methoxy]phenyl}-2-(trifluoromethyl)pyridine-3-carboxamide hydrochloride]", "values": [{"measurement": "fold more active than 2-chloronicotinoyl (67)", "setting": "[1]; vs 67", "value": 10, "unit": "fold"}]}
{"smiles": "CN(C)CCN(C(=O)c1ccc(Cl)cc1Cl)c1ccc(Cl)cc1", "note": "[Compound 47, 2,4-Dichloro-N-(4-chlorophenyl)-N-[2-(dimethylamino)ethyl] benzamide]", "values": [{"measurement": "activity on T. brucei cells (in words)", "setting": "[1]", "value": "eliminated anti-T. brucei activity"}]}
{"smiles": "Cl.NCCN(C(=O)c1ccc(F)cc1F)c1ccc(Cl)cc1", "note": "[Compound 40, N-(2-Aminoethyl)-N-(4-chlorophenyl)-2,4-difluorobenzamide hydrochloride]", "values": [{"measurement": "fold more active than 2-floro (30) or 4-fluoro (28) derivatives", "setting": "[1]; vs 30 or 28", "value": "at least 3 fold"}]}
{"smiles": "Cl.O=C(c1ccc(Cl)cc1Cl)N(c1ccc(Cl)cc1)c1cccnc1", "note": "[Compound 63, 2,4-Dichloro-N-(4-chlorophenyl)-N-(pyridin-3-yl)benzamide]", "values": [{"measurement": "activity on T. brucei cells (in words)", "setting": "[1]", "value": "inactive"}]}
{"smiles": "CNCCN(C(=O)c1ccc(Cl)cc1Cl)c1ccc(Cl)cc1.Cl", "note": "[Compound 58, 2,4-Dichloro-N-(4-chlorophenyl)-N-[2-(methylamino)ethyl] benzamide hydrochloride]", "values": [{"measurement": "fold reduction of potency compared to compound 2", "setting": "[1]", "value": 5, "unit": "fold"}]}
{"smiles": "CC(=O)NCCN(C(=O)c1ccc(Cl)cc1Cl)c1ccc(Cl)cc1", "note": "[Compound 46, N-{2-[N-(4-Chlorophenyl)-1-(2,4-dichlorophenyl)formamido]ethyl}acetamide]", "values": [{"measurement": "activity on T. brucei cells (in words)", "setting": "[1]", "value": "eliminated anti-T. brucei activity"}]}
{"smiles": "Cl.NCCN(C(=O)c1ccccc1Cl)c1ccc(Cl)cc1", "note": "[Compound 23, N-(2-Aminoethyl)-2-chloro-N-(4-chlorophenyl)benzamide hydrochloride]", "values": [{"measurement": "fold more active than 4-chlorobenzoyl derivative 21", "setting": "[1]; vs 21", "value": "~8", "unit": "fold"}, {"measurement": "fold more active than 3-chloro (22)", "setting": "[1]; vs 22", "value": 3, "unit": "fold"}]}
{"smiles": "COc1ccccc1C(=O)N(CCN)c1ccc(Cl)cc1.Cl", "note": "[Compound 26, N-(2-Aminoethyl)-N-(4-chlorophenyl)-2-methoxybenzamide hydrochloride]", "values": [{"measurement": "times less active compared to 23, 24", "setting": "[1]; vs 23, 24", "value": "at least 5 fold"}, {"measurement": "times more potent than 4-methoxy (27)", "setting": "[1]; vs 27", "value": "at least 4 fold"}]}
{"smiles": "Cl.NCCN(C(=O)c1cc([N+](=O)[O-])ccc1Cl)c1ccc(Cl)cc1", "note": "[Compound 36, N-(2-Aminoethyl)-2-chloro-N-(4-chlorophenyl)-5-nitrobenzamide hydrochloride]", "values": [{"measurement": "times less potent than 2-chloro analogue 23", "setting": "[1]; vs 23", "value": 3, "unit": "fold"}]}
{"smiles": "Cl.NCCCN(C(=O)c1ccc(Cl)cc1Cl)c1ccc(Cl)cc1", "note": "[Compound 50, N-(3-Aminopropyl)-2,4-dichloro-N-(4-chlorophenyl)benzamide]", "values": [{"measurement": "fold reduction of potency compared to compound 2", "setting": "[1]", "value": 10, "unit": "fold"}]}
{"smiles": "Cl.NCCN(C(=O)c1ccc(Cl)cc1Cl)c1ccc(N)cc1", "note": "[Compound 10, N-(2-Aminoethyl)-N-(4-aminophenyl)-2,4-dichlorobenzamide]", "values": [{"measurement": "activity on T. brucei cells (in words)", "setting": "[1]", "value": "eliminated activity"}]}
{"smiles": "Cc1ccccc1C(=O)N(CCN)c1ccc(Cl)cc1.Cl", "note": "[Compound 24, N-(2-Aminoethyl)-N-(4-chlorophenyl)-2-methylbenzamide hydrochloride]", "values": [{"measurement": "fold more active than 4-methyl derivative 25", "setting": "[1]; vs 25", "value": 14, "unit": "fold"}]}
{"smiles": "Cc1cc(C)cc(COc2ccc(N(CCN)C(=O)c3ccc(Cl)cc3Cl)cc2)c1.Cl", "note": "[Compound 76, N-(2-Aminoethyl)-2,4-dichloro-N-{4-[(3,5-dimethylphenyl)methoxy]phenyl}benzamide hydrochloride]", "values": [{"measurement": "relapse with parasites in the blood", "setting": "[2]", "value": "all mice relapsed"}, {"measurement": "suppression of parasitemia during treatment phase", "setting": "[2]", "value": "partial suppression"}, {"measurement": "number of mice free of parasitemia/number of mice in the group", "setting": "[2]; [3]", "value": "3/4"}, {"measurement": "number of mice free of parasitemia/number of mice in the group", "setting": "[2]; [4]", "value": "3/4"}, {"measurement": "number of mice free of parasitemia/number of mice in the group", "setting": "[2]; [5]", "value": "3/4"}, {"measurement": "number of mice free of parasitemia/number of mice in the group", "setting": "[2]; [7]", "value": "3/4"}, {"measurement": "number of mice free of parasitemia/number of mice in the group", "setting": "[2]; [6]", "value": "2/4"}, {"measurement": "number of mice free of parasitemia/number of mice in the group", "setting": "[2]; [8]", "value": "1/4"}]}
{"smiles": "N=C(N)c1ccc(/N=N/Nc2ccc(C(=N)N)cc2)cc1", "note": "[Diminazene, diminazene aceturate, reference compound]", "values": [{"measurement": "number of mice free of parasitemia/number of mice in the group", "setting": "[2]; [3]", "value": "3/3"}, {"measurement": "number of mice free of parasitemia/number of mice in the group", "setting": "[2]; [4]", "value": "3/3"}, {"measurement": "number of mice free of parasitemia/number of mice in the group", "setting": "[2]; [5]", "value": "3/3"}, {"measurement": "number of mice free of parasitemia/number of mice in the group", "setting": "[2]; [7]", "value": "3/3"}, {"measurement": "number of mice free of parasitemia/number of mice in the group", "setting": "[2]; [6]", "value": "3/3"}, {"measurement": "number of mice free of parasitemia/number of mice in the group", "setting": "[2]; [8]", "value": "3/3"}, {"measurement": "number of mice free of parasitemia/number of mice in the group", "setting": "[2]; day 41–42 post-infection, day 7–8 post-treatment", "value": "3/3"}, {"measurement": "number of mice free of parasitemia/number of mice in the group", "setting": "[2]; day 43–45 post-infection, day 9–11 post-treatment", "value": "3/3"}, {"measurement": "number of mice free of parasitemia/number of mice in the group", "setting": "[2]; day 46–49 post-infection, day 12–15 post-treatment", "value": "1/3"}, {"measurement": "number of mice free of parasitemia/number of mice in the group", "setting": "[2]; day 50–51 post-infection, day 16–17 post-treatment", "value": "0/3"}]}
{"smiles": "Cl.NCCN(C(=O)c1ccc(Cl)cc1Cl)c1ccc(Cl)cc1Cl", "note": "[Compound 12, N-(2-Aminoethyl)-2,4-dichloro-N-(2,4-dichlorophenyl)benzamide]", "values": [{"measurement": "fold enhancement of potency with respect to compound 1", "setting": "[1]", "value": "more than 2 fold"}]}
